Reference: patent US20030203373A1 (priority 2002, published 2003)
“And” between values parts separate entries of the source, which are not always exact repeats. Equal entries are not always repeated. Ends that are not written are not given here.

Molecular target: T1, ACE from pig kidney (Sus scrofa, UniProt F1RRW5)
T1 construct: 1 mU ACE from pig kidney (EC 3.4.15.1 (Sigma)); purchased Sigma; host or cells: pig kidney (tissue-derived enzyme)
T1 sequence (F1RRW5 34-1309): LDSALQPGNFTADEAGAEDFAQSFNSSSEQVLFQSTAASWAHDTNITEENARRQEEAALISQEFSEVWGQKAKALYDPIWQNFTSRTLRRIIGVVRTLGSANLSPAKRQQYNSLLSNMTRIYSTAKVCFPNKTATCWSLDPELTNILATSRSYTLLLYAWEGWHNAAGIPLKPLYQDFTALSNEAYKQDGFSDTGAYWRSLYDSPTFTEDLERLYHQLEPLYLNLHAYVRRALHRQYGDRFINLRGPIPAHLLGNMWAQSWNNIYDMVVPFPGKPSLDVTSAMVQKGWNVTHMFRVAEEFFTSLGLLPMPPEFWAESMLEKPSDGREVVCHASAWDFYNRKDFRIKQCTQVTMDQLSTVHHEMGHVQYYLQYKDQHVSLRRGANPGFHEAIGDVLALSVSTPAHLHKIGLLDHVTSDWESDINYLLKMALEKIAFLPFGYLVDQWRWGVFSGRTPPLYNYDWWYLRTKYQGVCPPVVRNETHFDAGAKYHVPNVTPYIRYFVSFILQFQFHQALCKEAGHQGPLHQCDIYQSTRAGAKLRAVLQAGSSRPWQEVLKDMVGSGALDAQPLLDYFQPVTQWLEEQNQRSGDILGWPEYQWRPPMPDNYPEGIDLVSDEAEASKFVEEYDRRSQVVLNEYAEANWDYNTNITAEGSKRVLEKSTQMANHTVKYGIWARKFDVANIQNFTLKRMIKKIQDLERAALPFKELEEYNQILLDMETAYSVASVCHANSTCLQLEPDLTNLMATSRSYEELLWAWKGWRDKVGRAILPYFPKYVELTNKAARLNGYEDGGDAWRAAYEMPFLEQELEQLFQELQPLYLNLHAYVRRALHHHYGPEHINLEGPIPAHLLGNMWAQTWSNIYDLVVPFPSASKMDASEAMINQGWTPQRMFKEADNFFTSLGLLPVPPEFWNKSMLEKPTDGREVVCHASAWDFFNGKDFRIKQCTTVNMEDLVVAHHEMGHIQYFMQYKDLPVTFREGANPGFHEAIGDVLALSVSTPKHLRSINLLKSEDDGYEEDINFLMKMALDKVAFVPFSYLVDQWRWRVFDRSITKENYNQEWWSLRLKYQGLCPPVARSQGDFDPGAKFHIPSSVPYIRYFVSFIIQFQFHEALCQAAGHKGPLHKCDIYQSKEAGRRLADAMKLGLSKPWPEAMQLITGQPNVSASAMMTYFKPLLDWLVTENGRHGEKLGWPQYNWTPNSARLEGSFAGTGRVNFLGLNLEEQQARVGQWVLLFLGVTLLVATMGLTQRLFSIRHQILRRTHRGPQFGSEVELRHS
Experiment: biochemical
Type: biochemical
Conditions: for IC50: ACE from pig kidney, determined graphically, read-out: IC50-value (ACE inhibition)
Description: These peptides were investigated for their inhibitory effect using an in vitro-ACE-inhibitor-assay with an angiotensin-converting-enzyme derived from pig kidney. Hippuryl-histidyl-leucin was used as a substrate. […] A concrete experimental description is given below.
The principle of the ACE-inhibition-assay was established by Chejung, H. S., Cushman, D. W.: “Inhibition of homogenous angiotensin converting enzyme of rabbit lung by synthetic venom peptides of Bothrops jararaca.” in Biochimica et Biophysica Acta 293, 451-563 (1973).
The assay was performed in 96 well HTRF-plates (Packard). The concentrations used for each well were:
1 mU ACE from pig kidney (EC 3.4.15.1 (Sigma)) in 30 μl of assay buffer (25 mM HEPES; 0,3 M NaCl, pH 8,2) and 20 μl inhibitor dissolved in assay buffer (0,35-200 μM). The reaction was started by adding 50 μl of 2 mM hippuryl-histidyl-leucin (Sigma) in assay buffer. The reaction was performed at room temperature (22° C.) for 30 minutes and terminated by adding 50 μl of 2 M NaOH. Afterwards 50 μl of 0,5% ortho-phtalaldehyd (Sigma) in methanol were added, 5 minutes later followed by 50 μl of 2,5 M HCl-solution to stabilize the developed fluorescence product.
The results were used to calculate the % inhibition. The IC50-values were determined graphically from a curve showing the dose-reaction ratio.
In order to minimize errors due to time-dependent differences, all pipetting steps were performed in a precise time schedule.

[1] = inhibitor 0.39 μM, replicates A-D
[2] = inhibitor 0.39 μM, replicates A-D, 0.39 µM
[3] = inhibitor 0.78125 μM, replicates A-D
[4] = inhibitor 0.78125 μM, replicates A-D, 0.78125 µM
[5] = inhibitor 1.5625 μM, replicates A-D
[6] = inhibitor 1.5625 μM, replicates A-D, 1.5625 µM
[7] = inhibitor 3.125 μM, replicates A-D
[8] = inhibitor 3.125 μM, replicates A-D, 3.125 µM
[9] = inhibitor 6.25 μM, replicates A-D
[10] = inhibitor 6.25 μM, replicates A-D, 6.25 µM
[11] = inhibitor 12.5 μM, replicates A-D
[12] = inhibitor 12.5 μM, replicates A-D, 12.5 µM
[13] = inhibitor 25 μM, replicates A-D
[14] = inhibitor 25 μM, replicates A-D, 25 µM
[15] = inhibitor 50 μM, replicates A-D
[16] = inhibitor 50 μM, replicates A-D, 50 µM
[17] = inhibitor 100 μM, replicates A-D
[18] = inhibitor 100 μM, replicates A-D, 100 µM
[19] = inhibitor 200 μM, replicates A-D
[20] = inhibitor 200 μM, replicates A-D, 200 µM

## GAALSPLPEVPP [Peptide S544]
  IC50: 29 µM
[1]
  fluorescence reading (ACE Inhibitor Assay): 841511 and 894833 and 882762 and 936430
[2]
  % inhibition (ACE Inhibitor Assay): 9.4% and 3.63% and 4.93% and −0.88%
[3]
  fluorescence reading (ACE Inhibitor Assay): 853374 and 881105 and 872351 and 929364
[4]
  % inhibition (ACE Inhibitor Assay): 8.12% and 5.11% and 6.06% and −0.11%
[5]
  fluorescence reading (ACE Inhibitor Assay): 864708 and 811879 and 787983 and 930998
[6]
  % inhibition (ACE Inhibitor Assay): 6.89% and 12.61% and 15.2% and −0.29%
[7]
  fluorescence reading (ACE Inhibitor Assay): 822128 and 840019 and 799408 and 883161
[8]
  % inhibition (ACE Inhibitor Assay): 11.5% and 9.56% and 13.96% and 4.89%
[9]
  fluorescence reading (ACE Inhibitor Assay): 670407 and 719205 and 725919 and 735049
  inhibition at 6.25 µM: 27.9%
[10]
  % inhibition (ACE Inhibitor Assay): 22.66% and 21.93% and 20.94%
[11]
  fluorescence reading (ACE Inhibitor Assay): 668628 and 658367 and 643614 and 684354
  inhibition at 12.5 µM: 28.1%
[12]
  % inhibition (ACE Inhibitor Assay): 29.25% and 30.85% and 26.43%
[13]
  fluorescence reading (ACE Inhibitor Assay): 494831 and 495043 and 522915 and 521311
  inhibition at 25 µM: 47%
[14]
  % inhibition (ACE Inhibitor Assay): 46.95% and 43.93% and 44.1%
[15]
  fluorescence reading (ACE Inhibitor Assay): 263679 and 261020 and 262784 and 286592
  inhibition at 50 µM: 72%
[16]
  % inhibition (ACE Inhibitor Assay): 72.3% and 72.12% and 69.54%
[17]
  fluorescence reading (ACE Inhibitor Assay): 154967 and 152193 and 156501 and 158918
  inhibition at 100 µM: 83.8%
[18]
  % inhibition (ACE Inhibitor Assay): 84.1% and 83.63% and 83.37%
[19]
  fluorescence reading (ACE Inhibitor Assay): 92239 and 93028 and 95574 and 94363
  inhibition at 200 µM: 90.6%
[20]
  % inhibition (ACE Inhibitor Assay): 90.51% and 90.23% and 90.34%

## PLPEVPP [Peptide S548, PLPEVPP]
  IC50: 21 µM
[1]
  fluorescence reading (ACE Inhibitor Assay): 850082 and 861072 and 990310 and 812986
[2]
  % inhibition (ACE Inhibitor Assay): 5,85% and 4,63% and −9,77% and 9,98%
[3]
  fluorescence reading (ACE Inhibitor Assay): 736956 and 848448 and 878121 and 787559
[4]
  % inhibition (ACE Inhibitor Assay): 18,46% and 6,03% and 2,73% and 12,82%
[5]
  fluorescence reading (ACE Inhibitor Assay): 672595 and 802519 and 857919 and 773857
[6]
  % inhibition (ACE Inhibitor Assay): 25,63% and 11,15% and 4,98% and 14,35%
[7]
  fluorescence reading (ACE Inhibitor Assay): 735840 and 756404 and 788637 and 719509
  inhibition at 3.125 µM: 18.6%
[8]
  % inhibition (ACE Inhibitor Assay): 16,29% and 12,7% and 20,4%
[9]
  fluorescence reading (ACE Inhibitor Assay): 644083 and 676136 and 699343 and 628007
  inhibition at 6.25 µM: 28.8%
[10]
  % inhibition (ACE Inhibitor Assay): 25,23% and 22,65% and 30,6%
[11]
  fluorescence reading (ACE Inhibitor Assay): 668264 and 582524 and 619407 and 572641
  inhibition at 12.5 µM: 37.2%
[12]
  % inhibition (ACE Inhibitor Assay): 35,66% and 31,55% and 36,76%
[13]
  fluorescence reading (ACE Inhibitor Assay): 411233 and 394114 and 413347 and 402465
  inhibition at 25 µM: 54.8%
[14]
  % inhibition (ACE Inhibitor Assay): 56,66% and 54,52% and 55,73%
[15]
  fluorescence reading (ACE Inhibitor Assay): 291507 and 326054 and 343249 and 278402
  inhibition at 50 µM: 68.1%
[16]
  % inhibition (ACE Inhibitor Assay): 64,24% and 62,33% and 69,55%
[17]
  fluorescence reading (ACE Inhibitor Assay): 181416 and 194177 and 204171 and 168452
  inhibition at 100 µM: 80.4%
[18]
  % inhibition (ACE Inhibitor Assay): 78,94% and 77,82% and 81,8%
[19]
  fluorescence reading (ACE Inhibitor Assay): 108115 and 108968 and 113955 and 101322
  inhibition at 200 µM: 88.5%
[20]
  % inhibition (ACE Inhibitor Assay): 88,43% and 87,87% and 89,28%

## AGAALSPLPEVPP [Peptide S543]
  IC50: 25 µM
[1]
  fluorescence reading (ACE Inhibitor Assay): 959059 and 985299 and 971597 and 996656
  inhibition at 0.39 µM: 7.74%
[2]
  % inhibition (ACE Inhibitor Assay): 5.2% and 6.53% and 4.1%
[3]
  fluorescence reading (ACE Inhibitor Assay): 946496 and 913444 and 925926 and 981909
[4]
  % inhibition (ACE Inhibitor Assay): 8.95% and 12.15% and 10.945% and 5.53%
[5]
  fluorescence reading (ACE Inhibitor Assay): 923507 and 888699 and 915925 and 980940
[6]
  % inhibition (ACE Inhibitor Assay): 11.18% and 14.54% and 11.9% and 5.62%
[7]
  fluorescence reading (ACE Inhibitor Assay): 868636 and 880388 and 856283 and 938801
  inhibition at 3.125 µM: 16.5%
[8]
  % inhibition (ACE Inhibitor Assay): 15.35% and 17.68% and 9.7%
[9]
  fluorescence reading (ACE Inhibitor Assay): 816251 and 788199 and 773151 and 833135
  inhibition at 6.25 µM: 21.6%
[10]
  % inhibition (ACE Inhibitor Assay): 24.26% and 25.72% and 19.92%
[11]
  fluorescence reading (ACE Inhibitor Assay): 683603 and 714973 and 720213 and 700323
  inhibition at 12.5 µM: 34.4%
[12]
  % inhibition (ACE Inhibitor Assay): 31.35% and 30.84% and 32.76%
[13]
  fluorescence reading (ACE Inhibitor Assay): 519515 and 531562 and 515233 and 534895
  inhibition at 25 µM: 50.2%
[14]
  % inhibition (ACE Inhibitor Assay): 49.09% and 50.66% and 48.76%
[15]
  fluorescence reading (ACE Inhibitor Assay): 362416 and 357767 and 358975 and 367216
  inhibition at 50 µM: 65.5%
[16]
  % inhibition (ACE Inhibitor Assay): 65.9% and 65.78% and 64.98%
[17]
  fluorescence reading (ACE Inhibitor Assay): 211437 and 206169 and 209393 and 219372
  inhibition at 100 µM: 80%
[18]
  % inhibition (ACE Inhibitor Assay): 80.56% and 80.25% and 79.28%
[19]
  fluorescence reading (ACE Inhibitor Assay): 107628 and 110019 and 108841 and 111945
  inhibition at 200 µM: 90.1%
[20]
  % inhibition (ACE Inhibitor Assay): 89.95% and 89.97% and 89.67%
